Assay results taken from patent US11078228B2, “Ectonucleotidase inhibitors and methods of use thereof” (Calithera Biosciences, Inc., priority 2018, dated 2021).

Molecular target: recombinant CD73 (Homo sapiens (Human), UniProt P21589)
Experiment: Assay 1: Inhibition of the CD73 enzyme in vitro (0.5 nM CD73, 30 min room temperature, Malachite Green)
Format: biochemical
Conditions: 0.5 nM CD73, 30 minutes at room temperature
Procedure: For measurements of soluble CD73 enzyme activity, recombinant CD73 was obtained from R&D Systems, Cat. No. 5795-EN-010. […] Reactions were allowed to proceed for 30 minutes at room temperature before the addition of 100 μL Malachite Green (Cell Signaling Technology, Cat. No. 12776). After 5 minutes at room temperature, absorbance at 630 nm was determined on a microplate spectrophotometer. The concentration of inorganic phosphate was determined using a phosphate standard curve.

Sequence of recombinant CD73 (P21589 27-547): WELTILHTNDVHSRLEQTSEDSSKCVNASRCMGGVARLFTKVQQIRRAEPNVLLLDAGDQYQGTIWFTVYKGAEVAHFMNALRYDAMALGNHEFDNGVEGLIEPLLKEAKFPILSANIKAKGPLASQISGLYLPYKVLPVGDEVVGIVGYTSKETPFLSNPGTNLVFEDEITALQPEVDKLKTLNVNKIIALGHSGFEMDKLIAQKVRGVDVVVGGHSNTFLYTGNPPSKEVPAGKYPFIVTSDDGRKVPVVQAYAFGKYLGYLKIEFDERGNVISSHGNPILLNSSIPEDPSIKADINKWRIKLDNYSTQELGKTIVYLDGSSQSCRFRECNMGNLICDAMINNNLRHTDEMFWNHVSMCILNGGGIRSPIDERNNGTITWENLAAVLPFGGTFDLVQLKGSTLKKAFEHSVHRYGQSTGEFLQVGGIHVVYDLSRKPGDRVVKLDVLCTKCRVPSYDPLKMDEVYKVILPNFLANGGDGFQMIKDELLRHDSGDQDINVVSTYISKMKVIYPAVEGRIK

| SMILES | IC50 |
| --- | --- |
| Nc1nc(Cl)nc2c1ncn2[C@@H]1O[C@H](COC(C(=O)O)C(=O)O)[C@](O)(C#Cc2ccn(Cc3ccccc3)n2)[C@H]1O [Example 28, 2-(((2R,3S,4R,5R)-5-(6-amino-2-chloro-9H-purin-9-yl)-3-((1-benzyl-1H-pyrazol-3-yl)ethynyl)-3,4-dihydroxytetrahydrofuran-2-yl)methoxy)malonic acid] | 3 nM |
| C#CCC(OC[C@H]1O[C@@H](n2cnc3c(N)nc(Cl)nc32)[C@H](O)[C@@]1(O)C#C)(C(=O)O)c1cscn1 (stereo partly drawn) [Example 184, 2-(((2R,3S,4R,5R)-5-(6-amino-2-chloro-9H-purin-9-yl)-3-ethynyl-3,4-dihydroxytetrahydrofuran-2-yl)methoxy)-2-(thiazol-4-yl)pent-4-ynoic acid] | 102 nM |
| C#C[C@@]1(O)[C@@H](COC(C(=O)O)C(=O)O)O[C@@H](n2cnc3c(N)nc(Cl)nc32)[C@@H]1O [Example 26, 2-(((2R,3S,4R,5R)-5-(6-amino-2-chloro-9H-purin-9-yl)-3-ethynyl-3,4-dihydroxytetrahydrofuran-2-yl)methoxy)malonic acid] | 58 nM |
| C#C[C@@]1(O)[C@@H](COC(Cc2ccccc2)(C(=O)O)C(=O)O)O[C@@H](n2cnc3c(N4CCCC4)nc(Cl)nc32)[C@@H]1O [Example 90, 2-benzyl-2-(((2R,3S,4R,5R)-5-(2-chloro-6-(pyrrolidin-1-yl)-9H-purin-9-yl)-3-ethynyl-3,4-dihydroxytetrahydrofuran-2-yl)methoxy)malonic acid] | 0.9 nM |
| C#C[C@@]1(O)[C@@H](CO[C@](Cc2ccccc2)(C(=O)O)c2cscn2)O[C@@H](n2cnc3c(NC)nc(Cl)nc32)[C@@H]1O [Example 187, (S)-2-(((2R,3S,4R,5R)-5-(2-chloro-6-(methylamino)-9H-purin-9-yl)-3-ethynyl-3,4-dihydroxytetrahydrofuran-2-yl)methoxy)-3-phenyl-2-(thiazol-4-yl)propanoic acid] | 10 nM |
| C[C@@]1(O)[C@@H](COC(Cc2ccc(-c3ccccc3C(=O)O)cc2)(C(=O)O)c2cscn2)O[C@@H](n2cnc3c(N)nc(Cl)nc32)[C@@H]1O (stereo partly drawn) [Example 200, 4′-(2-(((2R,3S,4R,5R)-5-(6-amino-2-chloro-9H-purin-9-yl)-3,4-dihydroxy-3-methyltetrahydrofuran-2-yl)methoxy)-2-carboxy-2-(thiazol-4-yl)ethyl)-[1,1′-biphenyl]-2-carboxylic acid] | 6090 nM |
| C#C[C@@]1(O)[C@@H](COC(Cc2cccc(C(F)(F)F)c2)(C(=O)O)C(=O)OCC)O[C@@H](n2cnc3c(N)nc(Cl)nc32)[C@@H]1O (stereo partly drawn) [Example 49, 2-(((2R,3S,4R,5R)-5-(6-amino-2-chloro-9H-purin-9-yl)-3-ethynyl-3,4-dihydroxytetrahydrofuran-2-yl)methoxy)-3-ethoxy-3-oxo-2-(3-(trifluoromethyl)-benzyl)propanoic acid] | 273 nM |
| C#C[C@@]1(O)[C@@H](CO[C@@](C#N)(Cc2ccccc2)C(=O)O)O[C@@H](n2cnc3c(N)nc(Cl)nc32)[C@@H]1O (single isomer, unassigned) [Example 190] | 9320 nM |
| C#C[C@@]1(O)[C@@H](CO[C@@](Cc2ccccc2)(C(=O)O)c2cscn2)O[C@@H](n2cnc3c(N)nc(Cl)nc32)[C@@H]1O (single isomer, unassigned) [Example 181] | 21 nM |
| CC[C@@]1(O)[C@@H](COC(C(=O)O)C(=O)O)O[C@@H](n2cnc3c(N)nc(Cl)nc32)[C@@H]1O [Example 55, 2-(((2R,3S,4R,5R)-5-(6-amino-2-chloro-9H-purin-9-yl)-3-ethyl-3,4-dihydroxytetrahydrofuran-2-yl)methoxy)malonic acid] | 35 nM |
| C[C@@]1(O)[C@@H](CO[C@](Cc2ccc(-c3ccccc3)cc2)(C(=O)O)c2cscn2)O[C@@H](n2cnc3c(N)nc(Cl)nc32)[C@@H]1O (single isomer, unassigned) [Example 198] | 2270 nM |
| C#C[C@@]1(O)[C@@H](COCP(=O)(O)O)O[C@@H](n2cnc3c(NCc4ccccc4)nc(Cl)nc32)[C@@H]1O [Example 204, ((((2R,3S,4R,5R)-5-(6-(benzylamino)-2-chloro-9H-purin-9-yl)-3-ethynyl-3,4-dihydroxytetrahydrofuran-2-yl)methoxy)methyl)phosphonic acid] | 100 nM |
| C#C[C@@]1(O)[C@@H](CO[C@](Cc2ccccc2)(C(=O)O)c2cscn2)O[C@@H](n2cnc3c(N)nc(Cl)nc32)[C@@H]1O (single isomer, unassigned) [Example 180] | 9 nM |
| C#C[C@@]1(O)[C@@H](COC(Cc2cccc(OC)c2)(C(=O)O)C(=O)O)O[C@@H](n2cnc3c(N)nc(Cl)nc32)[C@@H]1O [Example 52, 2-(((2R,3S,4R,5R)-5-(6-amino-2-chloro-9H-purin-9-yl)-3-ethynyl-3,4-dihydroxytetrahydrofuran-2-yl)methoxy)-2-(3-methoxybenzyl)malonic acid] | 4 nM |
| C#C[C@@]1(O)[C@@H](COC(Cc2ccsc2)(C(=O)O)C(=O)O)O[C@@H](n2cnc3c(N)nc(Cl)nc32)[C@@H]1O [Example 24, 2-(((2R,3S,4R,5R)-5-(6-amino-2-chloro-9H-purin-9-yl)-3-ethynyl-3,4-dihydroxytetrahydrofuran-2-yl)methoxy)-2-(thiophen-3-ylmethyl)malonic acid] | 1.8 nM |
| C#C[C@@]1(O)[C@@H](COC(C(=O)O)C(=O)N2CCCC2)O[C@@H](n2cnc3c(NC4CCCC4)nc(Cl)nc32)[C@@H]1O (stereo partly drawn) [Example 114, 2-(((2R,3S,4R,5R)-5-(2-chloro-6-(cyclopentylamino)-9H-purin-9-yl)-3-ethynyl-3,4-dihydroxytetrahydrofuran-2-yl)methoxy)-3-oxo-3-(pyrrolidin-1-yl)propanoic acid] | 177 nM |
| C[C@@]1(O)[C@@H](COP(=O)(O)CP(=O)(O)O)O[C@@H](n2cnc3c(NCc4ccccc4)nc(Cl)nc32)[C@@H]1O [Example 205, (((((2R,3S,4R,5R)-5-(6-(benzylamino)-2-chloro-9H-purin-9-yl)-3,4-dihydroxy-3-methyltetrahydrofuran-2-yl)methoxy)(hydroxy)phosphoryl)methyl)phosphonic acid] | 12 nM |
| C#C[C@@]1(O)[C@@H](CO[C@](C#N)(Cc2ccccc2)C(=O)O)O[C@@H](n2cnc3c(N)nc(Cl)nc32)[C@@H]1O (single isomer, unassigned) [Example 189] | 1850 nM |
| C#C[C@@]1(O)[C@@H](CO[C@H](C(=O)O)c2csc(-c3ccccc3)n2)O[C@@H](n2cnc3c(N)nc(Cl)nc32)[C@@H]1O (single isomer, unassigned) [Example 193] | 263 nM |
| C#C[C@@]1(O)[C@@H](CO[C@](Cc2ccccc2)(C(=O)O)c2nnn[nH]2)O[C@@H](n2cnc3c(N)nc(Cl)nc32)[C@@H]1O [Example 191, (S)-2-(((2R,3S,4R,5R)-5-(6-amino-2-chloro-9H-purin-9-yl)-3-ethynyl-3,4-dihydroxytetrahydrofuran-2-yl)methoxy)-3-phenyl-2-(1H-tetrazol-5-yl)propanoic acid] | 7 nM |
| C#C[C@@]1(O)[C@@H](COC(Cc2cccc(OC(F)(F)F)c2)(C(=O)O)C(=O)O)O[C@@H](n2cnc3c(N)nc(Cl)nc32)[C@@H]1O [Example 23, 2-(((2R,3S,4R,5R)-5-(6-amino-2-chloro-9H-purin-9-yl)-3-ethynyl-3,4-dihydroxytetrahydrofuran-2-yl)methoxy)-2-(3-(trifluoromethoxy)benzyl)malonic acid] | 5 nM |
